The values that follow come from patent US10130633B2, “Compounds” (BAYER PHARMA AKTIENGESELLSCHAFT, priority 2013, dated 2018).

Each structure is given as a SMILES string. Bounds are passed on as bounds.

In experiment [1] the test system is constitutive active colorectal cancer cell (CRC) Wnt pathway. The experiment is described as follows: HCT116 TOPFlash cellular reporter assay (Super TopFlash luciferase), constitutive active Wnt pathway. In kind it is cell-based. The note with it: HCT116 TOP reporter cells, 36 hours incubation, luciferase expression. Here is the method: In order to discover and characterize small molecules which inhibit the constitutive active colorectal cancer cell (CRC) Wnt pathway, a cellular reporter assay was employed. […] Stable transfectants were generated by cotransfection with pcDNA3 and selection of stable transfected cells with 1 mg/ml G418.
In general terms: In a reporter assay the amount or activity of a reporter protein is the signal.

In experiment [2] the test system is HCT116 FOP control reporter cell line. The experiment is described as follows: HCT116 FOPFlash control reporter assay (FOP control vector, non-functional TCF elements). In kind it is cell-based. Conditions: HCT116 FOP control reporter cells, 36 hours incubation, luciferase expression. An excerpt:
In a parallel approach, HCT116 cells were cotransfected with the FOP control vector and pcDNA3. The FOP vector is identical to the TOP construct, but it contains instead of functional TCF elements a randomized, non-functional sequence. For this transfection a stable transfected cell line was generated as well.

On to `O=C(CN1CCOCC1)Nc1cc(C(=O)Nc2nnc(-c3ccccc3)o2)ccc1OC(F)(F)F` [Example 191, 3-[(morpholin-4-ylacetyl)amino]-N-(5-phenyl-1,3,4-oxadiazol-2-yl)-4-(trifluoromethoxy)benzamide], for which the half-maximal inhibitory concentration (IC50) (usually the concentration at which inhibition is half-maximal) is 4.1 µM in experiment [1] (Homo sapiens, HCT-116, 36 h) and not below 50 µM in experiment [2] (Homo sapiens, HCT-116, 36 h).
The matching figures for `CC(C(=O)Nc1cc(C(=O)Nc2ccc(-c3cccc(F)c3)nc2)ccc1OC(F)(F)F)N1C[C@@H]2C[C@H]1CO2` (stereo partly drawn) [Example 192, N-[6-(3-fluorophenyl)pyridin-3-yl]-3-({2-[(1S,4S)-2-oxa-5-azabicyclo[2.2.1]hept-5-yl]propanoyl}amino)-4-(trifluoromethoxy)benzamide]: 0.135 µM and 12.4 µM.
On to `CC(C(=O)Nc1cc(C(=O)Nc2ccc(-c3cc(F)cc(F)c3)nc2)ccc1OC(F)(F)F)N1CC2CCC(C1)O2` (centres unmarked) [Example 194, N-[6-(3,5-difluorophenyl)pyridin-3-yl]-3-{[2-(8-oxa-3-azabicyclo[3.2.1]oct-3-yl)propanoyl]amino}-4-(trifluoromethoxy)benzamide], for which the concentration for half-maximal inhibition (IC50) in experiment [1] came out at 0.0399 µM; in experiment [2] it was 35 µM.
As for `CC(C(=O)Nc1cc(C(=O)Nc2ccc(-c3ccc(O)cc3)nc2)ccc1OC(F)(F)F)N1CCOCC1` (centres unmarked) [Example 195, N-[6-(4-hydroxyphenyl)pyridin-3-yl]-3-{[2-(morpholin-4-yl)propanoyl]amino}-4-(trifluoromethoxy)benzamide], the IC50 was 0.222 µM in experiment [1] (Homo sapiens, HCT-116, 36 h) and not below 50 µM in experiment [2] (Homo sapiens, HCT-116, 36 h).
The like results for `CC(C(=O)Nc1cc(C(=O)Nc2ccc(-c3ccccc3F)nc2)ccc1OC(F)(F)F)N1CCN(C2CC2)CC1` (centres unmarked) [Example 196, 3-{[2-(4-cyclopropylpiperazin-1-yl)propanoyl]amino}-N-[6-(2-fluorophenyl)pyridin-3-yl]-4-(trifluoromethoxy)benzamide] were, in that order, 0.143 µM and not below 50 µM.
The like results for `CN1CCN(CC(=O)Nc2cc(C(=O)Nc3ccc(-c4ccccc4F)nc3)ccc2OC(F)(F)F)CC1` [Example 197, N-[6-(2-fluorophenyl)pyridin-3-yl]-3-{[(4-methylpiperazin-1-yl)acetyl]amino}-4-(trifluoromethoxy)benzamide] were, in that order, 1.2 µM and 34 µM.
On to `CC(C(=O)Nc1cc(NC(=O)c2ccc(-c3cc(F)cc(F)c3)nc2)ccc1OC(F)(F)F)N1C[C@@H]2C[C@H]1CO2` (stereo partly drawn) [Example 198, 6-(3,5-difluorophenyl)-N-[3-({2-[(1S,4S)-2-oxa-5-azabicyclo[2.2.1]hept-5-yl]propanoyl}amino)-4-(trifluoromethoxy)phenyl] nicotinamide], for which the 50% inhibitory concentration (IC50) in experiment [1] (Homo sapiens, HCT-116, 36 h) is 0.144 µM; in experiment [2] (Homo sapiens, HCT-116, 36 h) it was 15 µM.
The like results for `CC(C(=O)Nc1cc(NC(=O)c2ccc(-c3cccc(F)c3)nc2)ccc1OC(F)(F)F)N1C[C@@H]2C[C@H]1CO2` (stereo partly drawn) [Example 199, 6-(3-fluorophenyl)-N-[3-({2-[(1S,4S)-2-oxa-5-azabicyclo[2.2.1]hept-5-yl]propanoyl}amino)-4-(trifluoromethoxy)phenyl] nicotinamide] were, in that order, 0.0717 µM and 8.8 µM.
`CC(C(=O)Nc1cc(NC(=O)c2ccc(-c3cccc(F)c3)nc2)ccc1OC(F)(F)F)N1CC2CCC(C1)O2` (centres unmarked) [Example 200, 6-(3-fluorophenyl)-N-[3-{[2-(8-oxa-3-azabicyclo[3.2.1]oct-3-yl)propanoyl]amino}-4-(trifluoromethoxy)phenyl] nicotinamide]: the concentration for half-maximal inhibition (IC50) came to 0.19 µM in experiment [1] and 6.4 µM in experiment [2].
Consider `CC(C(=O)Nc1cc(NC(=O)c2ccc(-c3cccc(F)c3)nc2)ccc1OC(F)(F)F)N1CCOCC1` (centres unmarked) [Example 201, 6-(3-fluorophenyl)-N-[3-{[2-(morpholin-4-yl)propanoyl]amino}-4-(trifluoromethoxy)phenyl] nicotinamide], for which the IC50 in experiment [1] turned out to be 0.106 µM; in experiment [2], 28.6 µM.
The like results for `CC(C(=O)Nc1cc(NC(=O)c2ccc(-c3cc(F)cc(F)c3)nc2)ccc1OC(F)(F)F)N1CC2CCC(C1)O2` (centres unmarked) [Example 202, 6-(3,5-difluorophenyl)-N-[3-{[2-(8-oxa-3-azabicyclo[3.2.1]oct-3-yl)propanoyl]amino}-4-(trifluoromethoxy)phenyl] nicotinamide] were, in that order, 0.2 µM and 5.8 µM.
For the compound `CC(C(=O)Nc1cc(NC(=O)c2ccc(-c3cc(F)cc(F)c3)nc2)ccc1OC(F)(F)F)N1CCOCC1` (centres unmarked) [Example 203, 6-(3,5-difluorophenyl)-N-[3-{[2-(morpholin-4-yl)propanoyl]amino}-4-(trifluoromethoxy)phenyl] nicotinamide], the IC50 was found to be 0.124 µM in experiment [1] and 15.2 µM in experiment [2].
The matching figures for `CC(C(=O)Nc1cc(NC(=O)c2ccc(-c3ccccc3F)nc2)ccc1OC(F)(F)F)N1CC2CCC(C1)O2` (centres unmarked) [Example 204, 6-(2-fluorophenyl)-N-[3-{[2-(8-oxa-3-azabicyclo[3.2.1]oct-3-yl)propanoyl]amino}-4-(trifluoromethoxy)phenyl] nicotinamide]: 0.0765 µM and 32.8 µM.
In the case of `CC(C(=O)Nc1cc(NC(=O)c2ccc(-c3ccccc3F)nc2)ccc1OC(F)(F)F)N1CC2CCC(C1)O2` (centres unmarked) [Example 205, 6-(2-fluorophenyl)-N-[3-{[2-(8-oxa-3-azabicyclo[3.2.1]oct-3-yl)propanoyl]amino}-4-(trifluoromethoxy)phenyl] nicotinamide], the concentration for half-maximal inhibition (IC50) in experiment [1] amounted to 0.0202 µM; in experiment [2] it was 18.2 µM.
With `CC(C(=O)Nc1cc(NC(=O)c2ccc(-c3ccccc3F)nc2)ccc1OC(F)(F)F)N1CCOCC1` (centres unmarked) [Example 206, 6-(2-fluorophenyl)-N-[3-{[2-(morpholin-4-yl)propanoyl]amino}-4-(trifluoromethoxy)phenyl] nicotinamide], the half-inhibitory concentration (IC50) in experiment [1] was 0.0876 µM; in experiment [2] (Homo sapiens, HCT-116, 36 h), 36.5 µM.
Turning to `CC(C(=O)Nc1cc(C(=O)Nc2ccc(-c3ccccc3F)nc2)ccc1C(F)(F)F)N1CCOCC1` (centres unmarked) [Example 207, N-[6-(2-fluorophenyl)pyridin-3-yl]-3-{[2-(morpholin-4-yl)propanoyl]amino}-4-(trifluoromethyl)benzamide], the half-inhibitory concentration (IC50) in experiment [1] is 0.153 µM; in experiment [2], 8.55 µM.
Turning to `CN1CCN(CC(=O)Nc2cc(C(=O)Nc3ccc(-c4ccccc4F)nc3)ccc2C(F)(F)F)CC1` [Example 210, N-[6-(2-fluorophenyl)pyridin-3-yl]-3-{[(4-methylpiperazin-1-yl)acetyl]amino}-4-(trifluoromethyl)benzamide], the IC50 in experiment [1] (Homo sapiens, HCT-116, 36 h) was determined as 0.152 µM; in experiment [2] (Homo sapiens, HCT-116, 36 h), 29.5 µM.
As for `CC(C(=O)Nc1cc(C(=O)Nc2ccc(-c3ccccc3F)nc2)ccc1C(F)(F)F)N1CCOCC1` (centres unmarked) [Example 211, N-[6-(2-fluorophenyl)pyridin-3-yl]-3-{[2-(morpholin-4-yl)propanoyl]amino}-4-(trifluoromethyl)benzamide], the half-maximal inhibitory concentration (IC50) in experiment [1] came to 0.0402 µM; in experiment [2], 24.6 µM.
The matching figures for `CC(C(=O)Nc1cc(NC(=O)c2ccc(-c3ccccc3F)nc2)ccc1OC(F)(F)F)N1CC2CCC(C1)O2` (centres unmarked) [Example 212, 6-(2-fluorophenyl)-N-[3-{[2-(8-oxa-3-azabicyclo[3.2.1]oct-3-yl)propanoyl]amino}-4-(trifluoromethoxy)phenyl] nicotinamide]: 0.18 µM and not below 50 µM.
The matching figures for `CC(C(=O)Nc1cc(NC(=O)c2ccc(-c3ccccc3F)nc2)ccc1OC(F)(F)F)N1CCOCC1` (centres unmarked) [Example 213, 6-(2-fluorophenyl)-N-[3-{[2-(morpholin-4-yl)propanoyl]amino}-4-(trifluoromethoxy)phenyl] nicotinamide]: 0.14 µM and not below 50 µM.
Regarding `O=C(CN1C[C@@H]2C[C@H]1CO2)Nc1cc(C(=O)Nc2ccc(-c3cc(F)cc(F)c3)nc2)ccc1OC(F)(F)F` [Example 214, N-[6-(3,5-difluorophenyl)pyridin-3-yl]-3-{[(1S,4S)-2-oxa-5-azabicyclo[2.2.1]hept-5-ylacetyl]amino}-4-(trifluoromethoxy)benzamide], the IC50 in experiment [1] (Homo sapiens, HCT-116, 36 h) was found to be 0.375 µM; in experiment [2] (Homo sapiens, HCT-116, 36 h), 6.3 µM.
As for `CC(C(=O)Nc1cc(C(=O)Nc2ccc(-c3cc(F)cc(F)c3)nc2)ccc1OC(F)(F)F)N1CC2CCC(C1)O2` (centres unmarked) [Example 215, N-[6-(3,5-difluorophenyl)pyridin-3-yl]-3-{[2-(8-oxa-3-azabicyclo[3.2.1]oct-3-yl)propanoyl]amino}-4-(trifluoromethoxy)benzamide], the IC50 in experiment [1] worked out at 0.245 µM; in experiment [2] it was 3.3 µM.
`O=C(CN1CC2CCC(C1)O2)Nc1cc(NC(=O)c2ccc(-c3cc(F)cc(F)c3)nc2)ccc1OC(F)(F)F` [Example 216, 6-(3,5-difluorophenyl)-N-{3-[(8-oxa-3-azabicyclo[3.2.1]oct-3-ylacetyl)amino]-4-(trifluoromethoxy)phenyl} nicotinamide]: the IC50 in experiment [1] (Homo sapiens, HCT-116, 36 h) was 0.26 µM; in experiment [2] (Homo sapiens, HCT-116, 36 h), 3.6 µM.
Take `CC(C(=O)Nc1cc(NC(=O)c2ccc(-c3cc(F)cc(F)c3)nc2)ccc1OC(F)(F)F)N1CC2CCC(C1)O2` (centres unmarked) [Example 218, 6-(3,5-difluorophenyl)-N-[3-{[2-(8-oxa-3-azabicyclo[3.2.1]oct-3-yl)propanoyl]amino}-4-(trifluoromethoxy)phenyl] nicotinamide]: the IC50 came out at 0.33 µM in experiment [1] and 15 µM in experiment [2].
The matching figures for `CC(C(=O)Nc1cc(NC(=O)c2ccc(-c3cc(F)cc(F)c3)nc2)ccc1OC(F)(F)F)N1CCOCC1` (centres unmarked) [Example 219, 6-(3,5-difluorophenyl)-N-[3-{[2-(morpholin-4-yl)propanoyl]amino}-4-(trifluoromethoxy)phenyl] nicotinamide]: 0.245 µM and not below 50 µM.
